Our source for the IC50 values is patent US11136317B2, “NADPH oxidase 4 inhibitors” (ACTELION PHARMACEUTICALS LTD, priority 2015, dated 2021).

Broadly, the IC50 is the concentration that gives 50% inhibition.

For the experiment, the target named is T1, human NOX4 (Homo sapiens, UniProt Q9NPH5).
T1 construct: The full-length human NOX4 (NM_016931.3) transcript was cloned; expressed in transfected cells
T1 sequence (Q9NPH5 1-578): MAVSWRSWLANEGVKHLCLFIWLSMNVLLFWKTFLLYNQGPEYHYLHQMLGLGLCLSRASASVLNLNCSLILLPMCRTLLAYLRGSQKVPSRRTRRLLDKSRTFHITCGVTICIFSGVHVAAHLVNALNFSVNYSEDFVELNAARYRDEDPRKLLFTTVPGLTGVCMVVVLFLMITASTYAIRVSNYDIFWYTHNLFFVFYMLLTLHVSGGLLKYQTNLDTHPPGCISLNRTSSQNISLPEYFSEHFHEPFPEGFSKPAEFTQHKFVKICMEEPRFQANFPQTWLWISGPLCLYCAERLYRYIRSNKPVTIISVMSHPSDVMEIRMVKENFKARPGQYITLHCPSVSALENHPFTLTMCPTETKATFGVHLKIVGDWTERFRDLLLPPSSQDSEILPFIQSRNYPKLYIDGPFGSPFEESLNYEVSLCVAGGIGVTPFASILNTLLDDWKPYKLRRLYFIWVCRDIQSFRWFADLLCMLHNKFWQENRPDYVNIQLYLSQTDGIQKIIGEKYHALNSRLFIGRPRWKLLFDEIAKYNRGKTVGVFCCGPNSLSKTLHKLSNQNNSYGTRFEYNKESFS
T1 sequence (P13498 1-195 partner): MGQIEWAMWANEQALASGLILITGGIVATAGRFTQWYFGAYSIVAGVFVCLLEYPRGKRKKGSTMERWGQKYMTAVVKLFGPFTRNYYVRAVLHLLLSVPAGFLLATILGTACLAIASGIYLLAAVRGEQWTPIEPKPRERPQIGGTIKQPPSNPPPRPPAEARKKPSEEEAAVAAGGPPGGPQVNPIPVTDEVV
The experiment in a line: Amplex Red activity assay (cellular H2O2 formation in hNOX4 T-REx-293 cells). The experiment is classed as cell-based. Conditions: tet-induced 24 h, extracellular H2O2 by Amplex Red, 60 min 25° C., geometric mean if determined several times. How it is done:
The nucleotide sequence and the amino acid sequence for the human NOX4 (Entrez Gene ID 50507) is known in the art and are published. The potency and efficacy of the compounds of Formula (I) are assessed for their potential to inhibit the formation of ROS in a cellular assay.
The full-length human NOX4 (NM_016931.3) transcript was cloned into the pDONR™221 vector (Life Technologies™) in order to generate, by site-specific integration according to the recommendation of the manufacturer (Life Technologies™), a recombinant pJTI™ R4 DEST CMV-TO vector containing the NOX4 coding information controlled by tetracycline (tet) responsive tet-on cytomegalovirus promoter (hNOX4 pDEST).
Modified human embryonic kidney cells overexpressing a tet receptor (Jump-In™ T-REx™ HEK293; Life Technologies™) were transfected with the NOX4-containing tet-on vector (hNOX4 pDEST) to generate a stable recombinant cell pool (hNOX4 T-REx-293). hNOX4 T-REx-293 cells were cultured in DMEM containing 4.5 g/L glucose supplemented with 10% fetal calf serum, penicillin (100 U/mL), streptomycin (100 μg/mL), geneticin (1 mg/mL), and blasticidin (5 μg/mL) at 37° C. in air with 5% CO2. Human Nox4 expression was induced with tet (1 μg/mL) for 24 h and extracellular H2O2 was quantified using the Amplex Red reagent (Life Technologies™).
Compounds were prepared as 10 mM stock solution in DMSO vehicle, then diluted in 384-well plates using DMSO followed by a transfer of the dilutions into the assay plate. As a control, diphenylene iodonium was included at a final concentration of 10 μM. Compounds were tested at 10 concentrations in the range from 50 μM highest to 100 nM lowest.
Cellular H2O2 formation was measured using the Amplex Red reagent. […] Cells were seeded into 384-well clear bottom plates at a density of 20 000 cells per well in presence or absence of compounds. […] All wells contained 1.25% of DMSO. The plates were kept at 25° C. for 60 min. The amount of produced resorufin was detected with the Synergy™ Mx microplate reader (BioTek) with excitation and emission wavelengths set to 550 nm and 600 nm, respectively. Fluorescence was measured for each well and the fluorescence at 600 nm wavelength was compared to the fluorescence of the vehicle in place of compound. Inhibitory activities of example compounds were determined by calculating the IC50 value (the concentration of compound needed to inhibit 50% of the enzyme activity). The calculated IC50 values may fluctuate depending on the daily cellular assay performance. Fluctuations of this kind are known to those skilled in the art.

Each structure is given as a SMILES string.

With `CCOCC1CCCN1c1nc2cc(NC(=O)c3ccc4c(c3)CCO4)ccc2o1` (stereo not shown) [Example 51, 2,3-Dihydro-benzofuran-5-carboxylic acid [2-(2-ethoxymethyl-pyrrolidin-1-yl)-benzooxazol-5-yl]-amide], the IC50 is 4.57 µM.

With `CN(CC1(F)COC1)c1nc2cc(NC(=O)c3ccc4c(c3)CCO4)ccc2o1` [Example 52, 2,3-Dihydro-benzofuran-5-carboxylic acid {2-[(3-fluoro-oxetan-3-ylmethyl)-methyl-amino]-benzooxazol-5-yl}-amide], the IC50 amounted to 0.899 µM. For the molecule `O=C(Nc1ccc2oc(N3CCN(C4COC4)CC3)nc2c1)c1ccc2c(c1)CCO2` [Example 53, 2,3-Dihydro-benzofuran-5-carboxylic acid [2-(4-oxetan-3-yl-piperazin-1-yl)-benzooxazol-5-yl]-amide], the IC50 is 0.913 µM. Under `CN(c1nc2cc(NC(=O)c3ccc4c(c3)CCO4)ccc2o1)C1CCN(C2COC2)CC1` [Example 54, 2,3-Dihydro-benzofuran-5-carboxylic acid {2-[methyl-(1-oxetan-3-yl-piperidin-4-yl)-amino]-benzooxazol-5-yl}-amide] stands 2.91 µM; under `O=C(Nc1ccc2oc(N3CCCC4(COC4)C3)nc2c1)c1ccc2c(c1)CCO2` [Example 55, 2,3-Dihydro-benzofuran-5-carboxylic acid [2-(2-oxa-6-aza-spiro[3.5]non-6-yl)-benzooxazol-5-yl]-amide], 0.4 µM; under `CN(CC1COC1)c1nc2cc(NC(=O)c3ccc4c(c3)CCO4)ccc2o1` [Example 56, 2,3-Dihydro-benzofuran-5-carboxylic acid [2-(methyl-oxetan-3-ylmethyl-amino)-benzooxazol-5-yl]-amide], 0.906 µM.

Regarding `CN(c1nc2cc(NC(=O)c3ccc4c(c3)CCO4)ccc2o1)C1COC1` [Example 57, 2,3-Dihydro-benzofuran-5-carboxylic acid [2-(methyl-oxetan-3-yl-amino)-benzooxazol-5-yl]-amide], the IC50 amounted to 0.681 µM.

Turning to `COCC1CCCN1c1nc2cc(NC(=O)c3ccc4c(c3)CCO4)ccc2o1` (stereo not shown) [Example 58, 2,3-Dihydro-benzofuran-5-carboxylic acid [2-(2-methoxymethyl-pyirolidin-1-yl)-benzooxazol-5-yl]-amide], the IC50 was determined as 1.33 µM.

For `COC1CCCN(c2nc3cc(NC(=O)c4ccc5c(c4)CCO5)ccc3o2)C1` (stereo not shown) [Example 59, 2,3-Dihydro-benzofuran-5-carboxylic acid [2-(3-methoxy-piperidin-1-yl)-benzooxazol-5-yl]-amide], the IC50 was 0.731 µM. Under `CN(C)CC1CCN(c2nc3cc(NC(=O)c4ccc5c(c4)CCO5)ccc3o2)C1` (stereo not shown) [Example 60, 2,3-Dihydro-benzofuran-5-carboxylic acid [2-(3-dimethylaminomethyl-pyrrolidin-1-yl)-benzooxazol-5-yl]-amide] stands 1.67 µM; under `CN(C)CC1CCCN1c1nc2cc(NC(=O)c3ccc4c(c3)CCO4)ccc2o1` (stereo not shown) [Example 61, 2,3-Dihydro-benzofuran-5-carboxylic acid [2-(2-dimethylaminomethyl-pyrrolidin-1-yl)-benzooxazol-5-yl]-amide], 5.24 µM. As for `O=C(Nc1ccc2oc(N(C3CC3)C3COC3)nc2c1)c1ccc2c(c1)CCO2` [Example 63, 2,3-Dihydro-benzofuran-5-carboxylic acid [2-(cyclopropyl-oxetan-3-yl-amino)-benzooxazol-5-yl]-amide], the IC50 was 0.359 µM. Regarding `O=C(Nc1ccc2oc(N3CC(N4CCCC4)C3)nc2c1)c1ccc2c(c1)CCO2` [Example 64, 2,3-Dihydro-benzofuran-5-carboxylic acid [2-(3-pyrrolidin-1-yl-azetidin-1-yl)-benzooxazol-5-yl]-amide], the IC50 stood at 2.13 µM. Under `CC(C)(O)C1CN(c2nc3cc(NC(=O)c4ccc5c(c4)CCO5)ccc3o2)C1` [Example 65, 2,3-Dihydro-benzofuran-5-carboxylic acid {2-[3-(1-hydroxy-1-methyl-ethyl)-azetidin-1-yl]-benzooxazol-5-yl}-amide] stands 0.851 µM. With `CN(C)CC1CN(c2nc3cc(NC(=O)c4ccc5c(c4)CCO5)ccc3o2)C1` [Example 66, 2,3-Dihydro-benzofuran-5-carboxylic acid [2-(3-dimethylaminomethyl-azetidin-1-yl)-benzooxazol-5-yl]-amide] the figure was 4.17 µM; with `CN1CCC2(CC1)CCN2c1nc2cc(NC(=O)c3ccc4c(c3)CCO4)ccc2o1` [Example 67, 2,3-Dihydro-benzofuran-5-carboxylic acid [2-(7-methyl-1,7-diaza-spiro[3.5]non-1-yl)-benzooxazol-5-yl]-amide], 3.08 µM. Under `CN1CCC2(CC1)CN(c1nc3cc(NC(=O)c4ccc5c(c4)CCO5)ccc3o1)C2` [Example 68, 2,3-Dihydro-benzofuran-5-carboxylic acid [2-(7-methyl-2,7-diaza-spiro[3.5]non-2-yl)-benzooxazol-5-yl]-amide] stands 1.79 µM; under `CN(C)C1CN(c2nc3cc(NC(=O)c4ccc5c(c4)CCO5)ccc3o2)C1` [Example 69, 2,3-Dihydro-benzofuran-5-carboxylic acid [2-(3-dimethylamino-azetidin-1-yl)-benzooxazol-5-yl]-amide], 1.93 µM; under `O=C(Nc1ccc2oc(N3CC4(C3)CS(=O)(=O)C4)nc2c1)c1ccc2c(c1)CCO2` [Example 70, 2,3-Dihydro-benzofuran-5-carboxylic acid [2-(2,2-dioxo-2l6-thia-6-aza-spiro[3.3]hept-6-yl)-benzooxazol-5-yl]-amide], 0.889 µM. Consider `O=C(Nc1ccc2oc(N3CCC34CCOC4)nc2c1)c1ccc2c(c1)CCO2` (stereo not shown) [Example 71, 2,3-Dihydro-benzofuran-5-carboxylic acid [2-(6-oxa-1-aza-spiro[3.4]oct-1-yl)-benzooxazol-5-yl]-amide], for which the IC50 amounted to 0.336 µM. On to `O=C(Nc1ccc2oc(N3CC4(CCS4(=O)=O)C3)nc2c1)c1ccc2c(c1)CCO2` [Example 72, 2,3-Dihydro-benzofuran-5-carboxylic acid [2(1,1-dioxo-1l6-thia-6-aza-spiro[3.3]hept-6-yl)-benzooxazol-5-yl]-amide], for which the IC50 worked out at 0.524 µM.

As to `CN(C)C1(C)CN(c2nc3cc(NC(=O)c4ccc5c(c4)CCO5)ccc3o2)C1` [Example 73, 2,3-Dihydro-benzofuran-5-carboxylic acid [2-(3-dimethylamino-3-methyl-azetidin-1-yl)-benzooxazol-5-yl]-amide], the IC50 is 4.1 µM. Take `O=C(Nc1ccc2oc(N3CC4(CCOC4)C3)nc2c1)c1ccc2c(c1)CCO2` [Example 74, 2,3-Dihydro-benzofuran-5-carboxylic acid [2-(6-oxa-2-aza-spiro[3.4]oct-2-yl)-benzooxazol-5-yl]-amide]: the IC50 stood at 1.08 µM. Under `CN1CCN(c2nc3cc(C(=O)Nc4ccc5c(c4)CCO5)ccc3o2)CC1` [Example 75, 2-(4-Methyl-piperazin-1-yl)-benzooxazole-5-carboxylic acid (2,3-dihydro-benzofuran-5-yl)-amide] stands 0.421 µM. With `O=C(Nc1ccc2c(c1)CCO2)c1ccc2oc(N3CCCCC3)nc2c1` [Example 76, 2-Piperidin-1-yl-benzooxazole-5-carboxylic acid (2,3-dihydro-benzofuran-5-yl)-amide] the figure was 0.414 µM.
